pEC50: −log10 of the molar value.
What was measured:
Type in all cases: cell-based
Bacillus cereus 14579 = assay: Antimicrobial MIC assay (NCCLS M7-A5)
Description: (§1) Minimum inhibitory concentrations (MICs) were determined according to the National Committee for Clinical Laboratory Standards (NCCLS) susceptibility test guideline M7-A5 (Ferraro, M. 2001 Methods for Dilution Antimicrobial Susceptibility Tests for Bacteria that Grow Aerobically; Approved Standard (NCCLS). National Committee for Clinical Laboratory Standards (NCCLS), Villanova, which is incorporated herein by reference in its entirety).

[1] = tested on: Staphylococcus aureus - MSSA; assay: Antimicrobial MIC assay (NCCLS M7-A5)
Description: as §1

Escherichia coli imp = assay: Antimicrobial MIC assay (NCCLS M7-A5)
Description: as §1

Candida albicans = assay: Antimicrobial MIC assay (NCCLS M7-A5)
Description: as §1

HT-29 cells = assay: Growth inhibition of human colorectal adenocarcinoma HT-29 cells (resazurin)
Description: HT-29 (ATCC; HTB-38) a human colorectal adenocarcinoma cell line was maintained in complete McCoy's 5A medium (McCoy's 5A medium supplemented with 10% (v/v) Fetal bovine serum, 2 mM glutamine, 10 mM HEPES, 1% (v/v) non-essential amino acids (NEAA), 1 mM sodium pyruvate and Penicillin/Streptomycin at 100 IU/ml and 100 μg/ml respectively). The cells were cultured in an incubator at 37° C. in 5% CO2 and 95% humidified air. For cell growth inhibition assays, HT-29 cells were seeded at 5×10^3 cells/well in 90 μl complete media into Corning 3904 black-walled, clear-bottom tissue culture plates and the plates were incubated overnight to allow cells to establish and enter log phase growth. Two independent assays were performed using 200 mM or 400 mM stock solutions prepared in 100% DMSO. 10× concentrated serial dilutions of the compound of Formula (V) were prepared in appropriate culture medium. Ten μl volumes of the serial dilutions were added to the test wells in triplicate resulting in final concentrations ranging from 500 μM to 158 nM or 1 mM to 7.81 μM. The plates were returned to the incubator for 48 hours. The final concentration of DMSO was 0.25% in all samples. […] Since living cells metabolize Resazurin, the fluorescence of the reduction product of Resazurin was measured using a Fusion microplate fluorometer (Packard Bioscience) with λex =535 nm and λem=[…] filters. […]

B16-F10 cells = assay: Growth inhibition of murine melanoma B16-F10 cells (resazurin)
Description: B16-F10 (ATCC; CRL-6475) a murine melanoma cell line was maintained in complete Dulbecco's Modification of Eagle's Medium (DMEM) (DMEM supplemented with 10% (v/v) Fetal bovine serum, 2 mM glutamine, 10 mM HEPES and Penicillin/Streptomycin at 100 IU/ml and 100 μg/ml respectively). The cells were cultured in an incubator at 37° C. in 5% CO2 and 95% humidified air. For cell growth inhibition assays, B16-F10 cells were seeded at 1.25×10^3 cells/well in 90 μl complete media into Corning 3904 black-walled, clear-bottom tissue culture plates and the plates were incubated overnight to allow cells to establish and enter log phase growth. Two independent assays were performed using 200 mM or 400 mM stock solutions prepared in 100% DMSO. 10× concentrated serial dilutions of the compound of Formula (V) were prepared in appropriate culture medium. Ten μl volumes of the serial dilutions were added to the test wells in triplicate resulting in final concentrations ranging from 500 μM to 158 nM or 1 mM to 7.81 μM. The plates were returned to the incubator for 48 hours. The final concentration of DMSO was 0.25% in all samples. […] Since living cells metabolize Resazurin, the fluorescence of the reduction product of Resazurin was measured using a Fusion microplate fluorometer (Packard Bioscience) with λex =535 nm and λem=590 nm filters. […]

## CC(=C/C(=O)c1ccc[nH]1)/C=C/C(O)C1(C)CCC(C(C)(C)O)O1 (stereo not shown) [Formula (V)]
Bacillus cereus 14579; Bacillus cereus 14579
  MIC: 72 µg/mL
Bacillus cereus 14579; gram positive: Bacillus cereus 14579
  anti-bacterial activity versus gram positive microorganisms (in words): possess anti-bacterial activity
[1]; Staphylococcus aureus - MSSA
  MIC: 64 µg/mL
[1]; gram positive: Staphylococcus aureus - MSSA
  anti-bacterial activity versus gram positive microorganisms (in words): possess anti-bacterial activity
Escherichia coli imp
  MIC: 128 µg/mL
Candida albicans
  MIC: > 128 µg/mL
HT-29 cells; HT-29
  inhibition of growth of HT-29 tumor cells (in words): able to inhibit the growth
HT-29 cells; Homo sapiens, HT-29, 48 hours drug exposure, resazurin fluorescence, read-out: EC50 against HT-29 cells
  pEC50: 3.54
B16-F10 cells; B16-F10
  inhibition of growth of B16-F10 tumor cells (in words): able to inhibit the growth
B16-F10 cells; Mus musculus, B16-F10, 48 hours drug exposure, resazurin fluorescence, read-out: EC50 against B16-F10 cells
  pEC50: 3.59

— patent US7550604B2, “Pyrroloterpenes and use of the same as antimicrobial and anticancer agents” (Nereus Pharmaceuticals, Inc., priority 2004, dated 2009)
